Results on 4 molecules are retold here after ChEMBL document CHEMBL4715849, “Recent Progress in the Discovery of Antifungal Agents Targeting the Cell Wall” (J Med Chem, 2020).

Broadly, the solubility is the concentration that dissolves in the medium under given conditions. High values mean a readily soluble substance, low ones a poorly soluble substance. In general, MIC refers to the lowest concentration that inhibits growth of the organism. The IC50 is the concentration at which inhibition is half-maximal.

Values after ≈ are worked out from the molar mass of the structure shown. Where only a bound is given, the exact number is not on record here.

In series [1] the test system is Candida albicans. Kind of series: Antifungal activity against Candida albicans infected in mouse assessed as protection against fungus-induced lethal infection. Conditions: read-out: PD50. The series is classed as functional.
Series [2] has as its system Candida albicans. Kind of series: Antifungal activity against Candida albicans A9540 infected in iv dosed ICR mouse assessed as protection against fungus-induced lethal infection dosed thrice at 48 hrs interval immediately following fungal challenge and measured on day 20 post infection by Litchfield -Wilcoxon method. It counts as functional. The note with it: 480 h, time 20 day, read-out: PD50.

Series [3] in a line: Solubility in water at pH 7.2. The series is classed as physicochemical.
Series [4] deals with Aspergillus fumigatus. Kind of series: Antifungal activity against Aspergillus fumigatus IAM2034 infected in iv dosed ICR mouse assessed as protection against fungus-induced lethal infection dosed thrice at 48 hrs interval immediately following fungal challenge and measured on day 20 post infection by Litchfield -Wilcoxon method. It counts as functional. The note with it: 480 h, time 20 day, read-out: PD50.

A further series deals with Debaryomyces hansenii. Kind of series: Antifungal activity against Candida famata incubated for 24 hrs by serial dilution method. It counts as functional.
For another series, the system named is Vanrija humicola. Put plainly: Antifungal activity against Candida humicola incubated for 24 hrs by serial dilution method. The series is classed as functional.
Series [5] relates to Candida albicans. Put plainly: Antifungal activity against Candida albicans ATCC 26278 incubated for 24 hrs by serial dilution method. It counts as functional.
For series [6], the system named is Nakaseomyces glabratus. Kind of series: Antifungal activity against Candida glabrata incubated for 24 hrs by serial dilution method. It counts as functional.
Series [7] can be described thus: Inhibition of Candida albicans glucosamine-6-phosphate synthase by Elson-Morgan method.
Series [8] deals with Candida albicans. Put plainly: Antifungal activity against Candida albicans ATCC 10261 incubated for 24 hrs by serial dilution method. It counts as functional.
Series [9] relates to Candida tropicalis. Kind of series: Antifungal activity against Candida tropicalis 85-5 incubated for 24 hrs by broth microdilution method. It counts as functional.
Series [10] concerns Candida albicans. Kind of series: Antifungal activity against Candida albicans A9540 incubated for 24 hrs by broth microdilution method. It counts as functional. For orientation: In broth dilution the organism is exposed to a series of concentrations in liquid medium.
The test system of series [11] is Candida albicans. Put plainly: Antifungal activity against Candida albicans 83-2-14 incubated for 24 hrs by broth microdilution method. It counts as functional.
Series [12] has as its system Candida tropicalis. Kind of series: Antifungal activity against Candida tropicalis IFO10241 incubated for 24 hrs by broth microdilution method. It counts as functional.
For series [13], the system named is Candida albicans. Kind of series: Antifungal activity against Candida albicans ATCC 32354 incubated for 24 hrs by broth microdilution method. It counts as functional.
The subject of series [14] is Candida albicans. Kind of series: Antifungal activity against Candida albicans IAM 888 incubated for 24 hrs by broth microdilution method. It counts as functional.
The test system of series [15] is Nakaseomyces glabratus. Put plainly: Antifungal activity against Candida glabrata MY1381 incubated for 24 hrs by liquid microdilution assay. The series is classed as functional.
A further series concerns Aspergillus flavus. Put plainly: Antifungal activity against Aspergillus flavus MF383 incubated for 24 hrs by liquid microdilution assay. The series is classed as functional.
Series [16] relates to Candida albicans. Put plainly: Antifungal activity against Candida albicans MY1055 incubated for 24 hrs by liquid microdilution assay. The series is classed as functional.
For series [17], the system named is Aspergillus fumigatus. Put plainly: Antifungal activity against Aspergillus fumigatus MF5668 assessed as inhibition of normal hyphal growth. The series is classed as functional. Conditions: time 24 hrs, read-out: MEC.
For series [18], the system named is Candida albicans. Put plainly: Antifungal activity against Candida albicans MY2301 incubated for 24 hrs by liquid microdilution assay. The series is classed as functional.
The subject of series [19] is Cryptococcus neoformans. Put plainly: Antifungal activity against Cryptococcus neoformans MY2061 incubated for 24 hrs by liquid microdilution assay. The series is classed as functional.
Series [20] deals with Candida albicans. Put plainly: Antifungal activity against Candida albicans. The series is classed as functional.
The test system of series [21] is Nakaseomyces glabratus. Kind of series: Antifungal activity against Candida glabrata CLY574 incubated for 24 hrs by liquid microdilution assay. It counts as functional.
Series [22] deals with Cryptococcus neoformans. Put plainly: Antifungal activity against Cryptococcus neoformans MY2062 incubated for 24 hrs by liquid microdilution assay. It counts as functional.
Series [23] relates to Meyerozyma guilliermondii. Kind of series: Antifungal activity against Candida guilliermondii CLY308 incubated for 24 hrs by liquid microdilution assay. The series is classed as functional.
A short description of series [24]: Inhibition of Candida albicans MY1055 1,3-beta-D-glucan synthase assessed as reduction in glucan synthesis by measuring decrease in incorporation of [14C]glucose preincubated for 30 mins followed by pulse-labelling with [U-14C]D-glucose for 30 mins by autoradiography.
The subject of series [25] is Meyerozyma guilliermondii. Kind of series: Antifungal activity against Candida guilliermondii CLY346 incubated for 24 hrs by liquid microdilution assay. It counts as functional.

Regarding `COc1cc(O)c2c(c1)C(=O)c1c(cc3c(c1O)-c1c(cc(C)c(C(=O)N[C@H](CO)C(=O)O)c1O)[C@H](O[C@@H]1O[C@H](C)[C@H](N(C)C)[C@H](O[C@@H]4OC[C@@H](O)[C@H](O)[C@H]4O)[C@H]1O)[C@H]3O)C2=O`, the results for the ED50 in the series with Candida albicans [1], in the series on Candida albicans [2] and in the series with Aspergillus fumigatus [4] were 50 mg/kg, 15 mg/kg and 23 mg/kg, respectively. Further, the solubility in series [3] was greater than 20 mg/mL.

With `COP(=O)(OC)OC[C@@H](O)[C@@H](O)[C@H](O)[C@@H](N)CO`, the MIC in the series with Debaryomyces hansenii, in the series on Vanrija humicola, against Candida albicans [5], in the series on Nakaseomyces glabratus [6] and in the series with Candida albicans [8] was 300 µg/mL (≈ 1040 µM) each time. For the same molecule, the IC50 in series [7] was determined as 4.75 mM.

On to `CCC/C=C/C=C/C=C/C(=O)OC[C@H]1O[C@@H](O[C@H]2[C@H](OC(=O)/C=C/C=C/C[C@H](O)/C=C/C=C/C=C/CCC)[C@@H](O)[C@@]3(OCc4cc(O)cc(O)c43)O[C@@H]2CO)[C@H](O)[C@@H](O)[C@H]1O`, for which the MIC with Candida tropicalis [9], in the series on Candida albicans [10], against Candida albicans [11], in the series on Candida tropicalis [12], with Candida albicans [13] and with Candida albicans [14] was 0.1 µg/mL (≈ 0.117 µM) in each case.

Turning to `CC(=O)O[C@@H]1C[C@]23C4=CC[C@@]5(C)[C@H](C(=O)O)[C@@](C)([C@H](C)C(C)C)CC[C@]5(C)[C@H]4CC[C@H]2[C@@](C)(COC3O)[C@H]1O[C@@H]1O[C@H](CO)[C@@H](O)[C@H](O)[C@H]1O` (stereo partly drawn) [ENFUMAFUNGIN], the MIC against Nakaseomyces glabratus [15] is 1 µg/mL (≈ 1.41 µM); with Aspergillus flavus, no more than 0.03 µg/mL; with Candida albicans [16] it was 0.25 µg/mL (≈ 0.353 µM); with Candida albicans [18] it was 0.5 µg/mL (≈ 0.705 µM); in the series on Cryptococcus neoformans [19], greater than 64 µg/mL; against Candida albicans [20] it was 0.2 µg/mL (≈ 0.282 µM). For the same molecule, the MIC was 1 µg/mL (≈ 1.41 µM) against Nakaseomyces glabratus [21], greater than 64 µg/mL against Cryptococcus neoformans [22], 1 µg/mL (≈ 1.41 µM) in series [23] and 2 µg/mL (≈ 2.82 µM) in [25]. Further, the minimal effective concentration in the series on Aspergillus fumigatus [17] was no more than 0.03 µg/mL. The 50% inhibitory concentration (IC50) in [24] was determined as 0.05 µg/mL (≈ 0.0705 µM).
